Source: patent US10221163B2 (priority 2015, dated 2019)
Read-outs that look alike come from different tables or passages of the source.

What was measured:
[1] = system: Pseudomonas aeruginosa MB9798 vs MB9799; details: fold difference between efflux+ (MB9798) and efflux− (MB9799) strains; imipenem at 2 μg/mL
Outline: (§1)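 PAO1 pair, broth microdilution; fixed β-lactam (imipenem/ceftazidime) at ~CLSI breakpoint + fixed class A/C BLI for AmpC; serial MBLi titration; endpoint = MBLi conc. restoring susceptibility; MB9798:MB9799 ratio = efflux liability.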

[2] = system: Pseudomonas aeruginosa efflux− (MB9799), IMP-1; type: cell-based; details: efflux− MB9799; imipenem at 2 μg/mL; in the presence of a class A, C, D serine β-lactamase inhibitor closely related to relebactam
Outline: as §1

NDM-1 = NDM-1 (Klebsiella pneumoniae, UniProt C7C422); assay: biochemical; type: biochemical; details: fluorescence assay, CCF2-FA substrate, 1 pM enzyme, 2 hours at 25° C.; read-out: NDM-1 IC50
Sequence of NDM-1 (C7C422 whole entry, looked up, species assumed): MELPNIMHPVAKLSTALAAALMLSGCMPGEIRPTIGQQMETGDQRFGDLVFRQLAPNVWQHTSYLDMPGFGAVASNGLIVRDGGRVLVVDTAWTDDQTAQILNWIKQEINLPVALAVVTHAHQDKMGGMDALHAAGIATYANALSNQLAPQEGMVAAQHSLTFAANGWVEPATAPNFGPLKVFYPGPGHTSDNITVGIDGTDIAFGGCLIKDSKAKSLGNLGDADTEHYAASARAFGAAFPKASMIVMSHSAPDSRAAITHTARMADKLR
Outline: (§2)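 Two-hour, 25° C incubation of enzyme with inhibitor and CCF2-FA (7-hydroxycoumarin–cephalosporin–fluorescein). Fluorescence read-out; IC50 via 4-parameter fit.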

IMP-1 = IMP-1 (Serratia marcescens, UniProt P52699); assay: biochemical; type: biochemical; details: fluorescence assay, CCF2-FA substrate, 2 pM enzyme, 2 hours at 25° C.; read-out: IMP-1 IC50
Sequence of IMP-1 (P52699 whole entry, looked up, species assumed): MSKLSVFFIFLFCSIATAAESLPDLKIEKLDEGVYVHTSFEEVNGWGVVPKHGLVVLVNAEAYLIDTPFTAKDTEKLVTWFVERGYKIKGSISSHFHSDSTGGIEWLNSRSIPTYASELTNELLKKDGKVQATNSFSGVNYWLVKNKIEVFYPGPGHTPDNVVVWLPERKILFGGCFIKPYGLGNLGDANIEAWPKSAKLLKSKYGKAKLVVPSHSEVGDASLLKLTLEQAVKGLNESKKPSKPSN
Outline: as §2

VIM-1 = VIM-1 (Pseudomonas aeruginosa (strain ATCC 15692 / DSM 22644 / CIP 104116 / JCM 14847 / LMG 12228 / 1C / PRS 101 / PAO1), UniProt A0A0F7KYQ8); assay: biochemical; details: CCF2-FA substrate, 30 pM enzyme, 2 hours at 25° C.
Outline: as §2

[3] = system: Pseudomonas aeruginosa efflux+ (MB9798), IMP-1; type: cell-based; parameters: Concentration of metallo-β-lactamase inhibitor which restores susceptibility of efflux + (MB9798) strain to imipenem: unit not given here; details: efflux+ MB9798; imipenem at 2 μg/mL; in the presence of a class A, C, D serine β-lactamase inhibitor closely related to relebactam
Outline: as §1

[4] = system: Escherichia coli expressing NDM-1 (CLB30005, CLB30016); type: cell-based; details: NDM-1 strain, with imipenem 1 μg/ml, 95% inhibition of growth
Outline: (§3)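 Clinical strains grown overnight on blood agar at 35°C, colonies suspended in saline, diluted 1:100 into 1.1×CAMHB. Test compound titrated with imipenem at 1 μg/ml; incubated 22–24 h at 35°C, growth read by absorbance.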

[5] = system: Klebsiella pneumoniae expressing VIM-1 (IHMA599644); type: cell-based; details: VIM-1 strain IHMA599644, with imipenem 1 μg/ml, 95% inhibition of growth
Outline: as §3

[6] = system: Serratia marcescens expressing IMP-1 (CL5741); type: cell-based; details: IMP-1 strain CL5741, with imipenem 1 μg/ml, 95% inhibition of growth
Outline: as §3

[7] = fluorescence assay, read-out: VIM-1 IC50

Row | Structure (SMILES) | Efflux ratio [1] | Concentration of metallo-β-lactamase inhibitor which restores susceptibility of efflux − (MB9799) strain to imipenem [2] | IC50 (NDM-1) | IC50 (IMP-1) | IC50 (VIM-1; VIM-1 IC50, fluorescence assay) | Concentration of metallo-β-lactamase inhibitor which restores susceptibility of efflux + (MB9798) strain to imipenem [3] | Escherichia coli MITC95 [4] | Klebsiella pneumoniae MITC95 [5] | Serratia marcescens MITC95 [6] | IC50 (VIM-1; [7])
1 | Nc1nc(-c2cccc(-c3ccc(S(=O)(=O)N[C@@H]4CCNC4)c(S(N)(=O)=O)c3-c3nn[nH]n3)c2)c[nH]1 [Example 428] | 1.00 | 0.7813 | 0.0473 nM | 0.407 nM | 0.133 nM | 0.7813 | 0.3906 µM | 1.563 µM | 0.7813 µM | 
2 | NCC(CN)NS(=O)(=O)c1ccc(-c2cccc3[nH]c(N)nc23)c(-c2nn[nH]n2)c1S(N)(=O)=O [Example 429] | 1.00 | 0.7813 | 0.0819 nM | 0.489 nM |  | 0.7813 | 0.5208 µM | 1.563 µM | 1.563 µM | 0.228 nM
3 | NCC(CN)NS(=O)(=O)c1ccc(-c2cccc3ccc(N)nc23)c(-c2nn[nH]n2)c1S(N)(=O)=O [Example 430] | 1.00 | 1.563 | 0.0325 nM | 0.102 nM |  | 1.563 | 1.172 µM | 1.563 µM | 1.563 µM | 0.103 nM
4 | NCCNCc1sc(N)nc1-c1cccc(-c2ccc(S(=O)(=O)N[C@@H]3CCNC3)c(S(N)(=O)=O)c2-c2nnn[nH]2)c1 [Example 433] | 2.00 | 0.7813 | 0.51 nM | 1.33 nM |  | 1.563 | 0.7813 µM | 1.563 µM | 1.563 µM | 0.404 nM
5 | NC[C@H](N)CNS(=O)(=O)c1ccc(-c2cccc(-c3c[nH]c(N)n3)c2)c(-c2nn[nH]n2)c1S(N)(=O)=O [Example 434] | 2.00 | 0.7813 | 0.2 nM | 1.53 nM |  | 1.563 | 0.7813 µM | 1.563 µM | 1.563 µM | 0.337 nM
6 | NCC(CN)NS(=O)(=O)c1ccc(-c2cccc(-c3c[nH]c(N)n3)c2)c(-c2nn[nH]n2)c1S(N)(=O)=O [Example 435] | 2.00 | 1.563 | 0.46 nM | 1.78 nM |  | 3.125 | 1.563 µM | 3.125 µM | 3.125 µM | 1.21 nM
7 | NCC(CN)NS(=O)(=O)c1ccc(-c2cccc3sc(N)nc23)c(-c2nn[nH]n2)c1S(N)(=O)=O [Example 436] | 1.00 | 0.7813 | 0.0246 nM | 0.103 nM |  | 0.7813 | 0.7813 µM | 1.563 µM | 1.563 µM | 0.116 nM
8 | NCC(CN)NS(=O)(=O)c1ccc(-c2ccnc(-c3cnc(N)[nH]3)c2)c(-c2nnn[nH]2)c1S(N)(=O)=O [Example 437, 4-(2-(2-Amino-1H-imidazol-5-yl)pyridin-4-yl)-N^1-(1,3-diaminopropan-2-yl)-3-(1H-tetrazol-5-yl)benzene-1,2-disulfonamide] | 2.00 | 0.7813 | 1.18 nM | 2.41 nM | 0.952 nM | 1.563 | 0.7813 µM | 3.125 µM | 3.125 µM | 
9 | NCC(CN)NS(=O)(=O)c1ccc(-c2cccc(-c3cnc(N)[nH]3)n2)c(-c2nnn[nH]2)c1S(N)(=O)=O [Example 438, 4-(6-(2-Amino-1H-imidazol-5-yl)pyridin-2-yl)-N^1-(1,3-diaminopropan-2-yl)-3-(1H-tetrazol-5-yl)benzene-1,2-disulfonamide] | 2.00 | 3.125 | 2.04 nM | 17.9 nM | 3.91 nM | 6.25 | 3.125 µM | 3.125 µM | 3.125 µM | 
10 | Nc1ncc(-c2cccc(-c3ccc(S(=O)(=O)N[C@@H]4CCNC4)c(S(N)(=O)=O)c3-c3nnn[nH]3)n2)[nH]1 [Example 439, (R)-4-(6-(2-Amino-1H-imidazol-5-yl)pyridin-2-yl)-N^1-(pyrrolidin-3-yl)-3-(1H-tetrazol-5-yl)benzene-1,2-disulfonamide] | 4.00 | 1.563 | 0.254 nM | 6.72 nM |  | 6.25 | 3.125 µM | 1.563 µM | 1.563 µM | 0.629 nM
11 | Nc1ncc(-c2cc(-c3ccc(S(=O)(=O)N[C@@H]4CCNC4)c(S(N)(=O)=O)c3-c3nnn[nH]3)ccn2)[nH]1 [Example 440, (R)-4-(2-(2-Amino-1H-imidazol-5-yl)pyridin-4-yl)-N^1-(pyrrolidin-3-yl)-3-(1H-tetrazol-5-yl)benzene-1,2-disulfonamide] | 2.00 | 0.7813 | 0.333 nM | 3.96 nM | 0.571 nM | 1.563 | 0.7813 µM | 1.563 µM | 1.563 µM | 
12 | C[C@H](N)Cc1nc2c(-c3ccc(S(N)(=O)=O)c(S(N)(=O)=O)c3-c3nn[nH]n3)cccc2[nH]1 [Example 442, (S)-4-(2-(2-aminopropyl)-1H-benzo[d]imidazol-4-yl)-3-(2H-tetrazol-5-yl)benzene-1,2-disulfonamide] | 0.50 | 1.563 | 0.431 nM | 1.33 nM | 0.249 nM | 0.7813 | 1.563 µM | 3.125 µM | 1.563 µM | 
13 | NCCNS(=O)(=O)c1ccc(-c2cccc3[nH]c([C@@H]4C[C@@H](O)CN4)nc23)c(-c2nn[nH]n2)c1S(N)(=O)=O [Example 444, N1-(2-aminoethyl)-4-(2-((2S,4R)-4-hydroxypyrrolidin-2-yl)-1H-benzo[d]imidazol-4-yl)-3-(2H-tetrazol-5-yl)benzene-1,2-disulfonamide] | 1.00 | 1.563 | 0.236 nM | 1.59 nM | 0.235 nM | 1.563 | 1.563 µM | 3.125 µM | 3.125 µM | 
